Reference: patent publication US8648076B2, “Cysteine protease inhibitors and their therapeutic applications” (Hybrigenics SA, priority 2005, dated 2014)
pIC50: −log10 of the molar value.

These compounds were tested against Cathepsin B (Homo sapiens, UniProt P07858) (assay: Cathepsin B activity assay). Details: 36 μM z-RR-AMC, 3.6 nM enzyme, 30 min pre-incubation at 25° C., 60 min at 37° C.; sigmoidal fit; AF: Autofluorescent; read-out: cathepB (inhibition of cysteine protease activity).
Type: biochemical
Description: Cathepsin B was diluted in Cathepsin B buffer (20 mM Tris HCl pH 6.8; 1 mM EDTA; 1 mM DTT). Compounds stocks (100 mM) were stored at −20° C. in DMSO. […] Reactions were performed as duplicates in Black LJL 96 well plates (HE microplates; Molecular Devices; 20 μl final reaction volume). The substrate concentration for cathepsin B specificity assay was 36 μM (z-RR-AMC; Calbiochem). The concentration of the enzyme (Cathepsin B) in specificity assays was 3.6 nM. The concentrations were determined in order to perform specificity assays under initial velocities at fixed substrate concentration. Compounds were pre-incubated with enzymes for 30 minutes at 25° C. Reactions were initiated by addition of substrate to the plates containing the enzymes (+/− compounds) diluted in assay buffer. Reactions were incubated for 60 minutes at 37° C. Reactions were stopped by adding acetic acid (100 mM final). Readings were performed on a Pherastar Fluorescent Reader (BMG). δ Emission 380 nm; 6 Excitation=460 nm. Data (mean values+/− standard deviation) were analyzed as % of control (no compound) and plotted as percentage versus the Log of the compound concentration using GraphPad (Prism). Data were fitted to a sigmoidal model (variable slope).

First: CCON=C1c2ccccc2-c2nc(C(N)=O)c(C#N)nc21 [Example 34b, 2-Cyano-9-ethoxyimino-9H-indeno[1,2-b]pyrazine-3-carboxylic acid amide]
Second: C=CCON=C1c2ccccc2-c2nc(C(N)=O)c(C#N)nc21 [Example 34a, 9-Allyloxyimino-2-cyano-9H-indeno[1,2-b]pyrazine-3-carboxylic acid amide]
The pIC50 of the first is lower: under 4.00 for the first, 5.46 for the second. The second is the more potent here.

CCSc1nc2c(nc1C#N)C(=O)c1ccccc1-2 [Example 23, 3-ethylsulfanyl-9-oxo-9H-indeno[1,2-b]pyrazine-2-carbonitrile] and N#Cc1nc2c(nc1N)-c1ccccc1C2=O [Example 7, 3-amino-9-oxo-9H-indeno[1,2-b]pyrazine-2-carbonitrile] cannot be ordered by pIC50: under 4.00 for the first, under 4.00 for the second.

First: N#Cc1nc2c(nc1C#N)C1(OCCO1)c1ccccc1-2 [Example 10]
Second: N#Cc1nc2c(nc1C#N)-c1ccccc1C2=O [Example 1, 9-oxo-9H-indeno[1,2-b]pyrazine-2,3-dicarbonitrile]
The pIC50 of the first is lower: under 4.00 for the first, 4.92 for the second.

N#Cc1nc2c(nc1C#N)-c1ccccc1C2=NOCc1ccccc1 (mixture of isomers) [Example 13C, 9-Benzyloxyimino-9H-indeno[1,2-b]pyrazine-2,3-dicarbonitrile] and N#Cc1nc2c(nc1C#N)-c1ccccc1/C2=N/Oc1ccccc1 [Example 13e, 9-Phenoxyimino-9H-indeno[1,2-b]pyrazine-2,3-dicarbonitrile] cannot be ordered by pIC50: under 4.00 for the first, under 4.00 for the second.

Compared with Cc1cccc2c1C(=O)c1nc(C#N)c(C#N)nc1-2 [Example 17c, 8-Methyl-9-oxo-9H-indeno[1,2-b]pyrazine-2,3-dicarbonitrile], Cc1ccc2c(c1)-c1nc(C#N)c(C#N)nc1C2=O [Example 17e, 6-Methyl-9-oxo-9H-indeno[1,2-b]pyrazine-2,3-dicarbonitrile] is higher in pIC50: under 4.00 for the first, 4.70 for the second.

N#Cc1nc2c(nc1C#N)-c1ccccc1C2=NOCCOc1ccccc1 [Example 27a, 9-(2-Phenoxy-ethoxyimino)-9H-indeno[1,2-b]pyrazine-2,3-dicarbonitrile] and N#Cc1nc2c(nc1C#N)-c1ccc(Cl)cc1C2=NOCCOc1ccccc1 [Example 27b, 7-Chloro-9-(2-phenoxy-ethoxyimino)-9H-indeno[1,2-b]pyrazine-2,3-dicarbonitrile] cannot be ordered by pIC50: under 4.00 for the first, under 4.00 for the second.

First: COCCON=C1c2ccccc2-c2nc(C(N)=O)c(C#N)nc21 [Example 34c, 2-Cyano-9-(2-methoxy-ethoxyimino)-9H-indeno[1,2-b]pyrazine-3-carboxylic acid amide]
Second: CON=C1c2ccccc2-c2nc(C(N)=O)c(C#N)nc21 [Example 34d, 2-Cyano-9-methoxyimino-9H-indeno[1,2-b]pyrazine-3-carboxylic acid amide]
The pIC50 of the first is lower: under 4.00 for the first, 5.95 for the second.

First: CC(=O)O/N=C1\c2ccccc2-c2nc(C(N)=O)c(C#N)nc21 (single isomer, unassigned) [Example 35, 2-cyano-9-acetoxyimino-9H-indeno[1,2-b]pyrazine-3-carboxylic acid amide]
Second: CON=C1c2ccccc2-c2nc(C#N)c(C#N)nc21 [Example 13a, 9-(methoxyimino)-9H-indeno[1,2-b]pyrazine-2,3-dicarbonitrile]
The pIC50 of the first is higher: 4.94 for the first, under 4.00 for the second.

Compared with N#Cc1nc2c(nc1C#N)-c1ccccc1C2=Nc1ccccc1 (mixture of isomers) [Example 14, 9-[phenylimino]-9H-indeno[1,2-b]pyrazine-2,3-dicarbonitrile], N#Cc1nc2c(nc1C#N)-c1ccccc1C2=NO [Example 12, 9-[hydroxyimino]-9H-indeno[1,2-b]pyrazine-2,3-dicarbonitrile] is 0.55 log units higher in pIC50: 4.13 for the first, 4.68 for the second.

N#Cc1nc2sc3ccccc3c2nc1C#N [Example 19, benzo[4,5]thieno[2,3-b]pyrazine-2,3-dicarbonitrile] and N#Cc1nc2c(nc1C#N)C(=O)c1ccccc1C2=O [Example 20, 5,10-dioxo-5,10-dihydro-benzo[g]quinoxaline-2,3-dicarbonitrile] cannot be ordered by pIC50: under 4.00 for the first, under 4.00 for the second.

N#Cc1nc2c(nc1Cl)-c1ccccc1C2=O [Example 9, 3-chloro-9-oxo-9H-indeno[1,2-b]pyrazine-2-carbonitrile] and N#Cc1nc2c(nc1O)-c1ccccc1C2=O [Example 6, 3-hydroxy-9-oxo-9H-indeno[1,2-b]pyrazine-2-carbonitrile] cannot be ordered by pIC50: under 4.00 for the first, under 4.00 for the second.

Cc1cccc2c1Cc1nc(C#N)c(C#N)nc1-2 [Example 16c, 8-Methyl-9H-indeno[1,2-b]pyrazine-2,3-dicarbonitrile] and CCON=C1c2ccccc2-c2nc(C#N)c(C#N)nc21 (mixture of isomers) [Example 13d, 9-Ethoxyimino-9H-indeno[1,2-b]pyrazine-2,3-dicarbonitrile] cannot be ordered by pIC50: under 4.00 for the first, under 4.00 for the second.

CN(C)c1nc2c(nc1C#N)C(=O)c1ccccc1-2 [Example 4, 3-dimethylamino-9-oxo-9H-indeno[1,2-b]pyrazine-2-carbonitrile] and COc1nc2c(nc1C#N)C(=O)c1ccccc1-2 [Example 3, 3-methoxy-9-oxo-9H-indeno[1,2-b]pyrazine-2-carbonitrile] cannot be ordered by pIC50: under 4.00 for the first, under 4.00 for the second.

N#Cc1nc2c(nc1N1CCC(F)(F)CC1)-c1ccccc1C2=O [Example 8, 3-(4,4-difluoro-piperidin-1-yl)-9-oxo-9H-indeno[1,2-b]-pyrazine-2-carbonitrile] and N#CNc1nc2c(nc1C#N)C(=O)c1ccccc1-2 [Example 21, 2-cyano-9-oxo-9H-indeno[1,2-b]pyrazin-3-yl-cyanamide] cannot be ordered by pIC50: under 4.00 for the first, under 4.00 for the second.

Compared with N#Cc1nc2c(nc1C#N)-c1ccc(F)cc1C2=O [Example 17h, 7-Fluoro-9-oxo-9H-indeno[1,2-b]pyrazine-2,3-dicarbonitrile], N#Cc1nc2c(nc1C#N)-c1ccc(O)cc1C2=O [Example 17j, 7-Hydroxy-9-oxo-9H-indeno[1,2-b]pyrazine-2,3-dicarbonitrile] is 0.82 log units lower in pIC50: 5.22 for the first, 4.40 for the second. The first is the more potent here.

N#Cc1nc2c(nc1CC(N)=O)-c1ccccc1C2=O [Example 26, 2-(2-cyano-9-oxo-9H-indeno[1,2-b]pyrazin-3-yl)-acetamide] and COCCOc1nc2c(nc1C#N)C(=O)c1ccccc1-2 [Example 5, 3-(2-methoxy-ethoxy)-9-oxo-9H-indeno[1,2-b]pyrazine-2-carbonitrile] cannot be ordered by pIC50: under 4.00 for the first, under 4.00 for the second.

Compared with C=CCON=C1c2ccccc2-c2nc(C#N)c(C#N)nc21 (mixture of isomers) [Example 13b, 9-(Allyloxyimino)-9H-indeno[1,2-b]pyrazine-2,3-dicarbonitrile], N#Cc1nc2c(nc1C#N)-c1ccc(Cl)cc1C2=O [Example 17g, 7-Chloro-9-oxo-9H-indeno[1,2-b]pyrazine-2,3-dicarbonitrile] is higher in pIC50: under 4.00 for the first, 5.82 for the second. The second is the more potent here.

Going from N#Cc1nc2c(nc1O)-c1ccc(Cl)cc1C2=O [Example 42, 7-chloro-3-hydroxy-9-oxo-9H-indeno[1,2-b]pyrazine-2-carbonitrile] to COc1ccc2c(c1)C(=O)c1nc(C#N)c(C#N)nc1-2 [Example 17i, 7-Methoxy-9-oxo-9H-indeno[1,2-b]pyrazine-2,3-dicarbonitrile], the pIC50 rises from under 4.00 to 4.49.

Going from COc1ccc2c(c1OC)C(=O)c1nc(C#N)c(C#N)nc1-2 [Example 17d, 7,8-Dimethoxy-9-oxo-9H-indeno[1,2-b]pyrazine-2,3-dicarbonitrile] to COc1ccc(OC)c2c1C(=O)c1nc(C#N)c(C#N)nc1-2 [Example 17f, 5,8-Dimethoxy-9-oxo-9H-indeno[1,2-b]pyrazine-2,3-dicarbonitrile], the pIC50 rises from 4.06 to 4.28 (0.22 log units). The second is the more potent here.

Going from COc1cc2c(cc1OC)-c1nc(C#N)c(C#N)nc1C2=O [Example 17b, 6,7-Dimethoxy-9-oxo-9H-indeno[1,2-b]pyrazine-2,3-dicarbonitrile] to CCc1ccc2c(c1)-c1nc(C#N)c(C#N)nc1C2=O [Example 32, 6-ethyl-9-oxo-9H-indeno[1,2-b]pyrazine-2,3-dicarbonitrile], the pIC50 rises from under 4.00 to 4.16.

CCO/C(O)=C(\C#N)c1nc2c(nc1C#N)C(=O)c1ccccc1-2 [Example 22, 3-(1-cyano-2-ethoxy-2-hydroxy-vinyl)-9-oxo-9H-indeno[1,2-b]pyrazine-2-carbonitrile] and N#Cc1nc2c(nc1C#N)-c1ccc(Cl)cc1C2=NNC(N)=O [Example 43, 9-[(aminocarbonyl)hydrazono]-7-chloro-9H-indeno[1,2-b]pyrazine-2,3-dicarbonitrile] cannot be ordered by pIC50: under 4.00 for the first, under 4.00 for the second.
